Values quoted from earlier work in patent US20070166389A1, “Stabilized lyophilized blood platelets” (priority 2005, published 2007).

Assays:
[1] = system: sickle erythrocytes; conditions: glyceraldehyde treatment in vitro
[2] = dosages effective for increasing bile salt secretion

In the case of `O=CC(O)CO` (stereo not drawn) [glyceraldehyde], the “deleterious effects of the treatment” value [1] is given as “failed to show any deleterious effects” and the “life span in vivo of sickle erythrocytes” value [1] is given as “prolongation of the life span of sickle erythrocytes”.

For `COC(=O)C1=CO[C@@H](O)[C@@H]2C(CO)=CC[C@H]12` [genipin], the “abnormal symptoms in liver or kidney” value [2] is given as “do not cause any abnormal symptoms in the liver or kidney”.
